Measured values reported in patent US5247084A, “Derivatives of p-guanidinobenzoic acid” (priority 1985, dated 1993).
Read-outs that look alike come from different tables or passages of the source.

Biological target: T1, elastase from human neutrophil (Homo sapiens, UniProt P08246)
T1 construct: using elastase from human neutrophil; from tissue; host or cells: human neutrophil
T1 sequence (P08246 30-247 limits assumed): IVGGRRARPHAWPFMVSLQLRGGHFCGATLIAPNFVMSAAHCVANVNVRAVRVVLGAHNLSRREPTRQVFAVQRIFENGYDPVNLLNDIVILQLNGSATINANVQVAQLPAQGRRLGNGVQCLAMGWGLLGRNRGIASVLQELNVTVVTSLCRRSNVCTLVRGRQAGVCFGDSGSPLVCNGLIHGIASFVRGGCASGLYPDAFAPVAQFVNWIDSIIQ
Assay: Inhibitory effect on elastase (spectrophotometric method, substrate Suc-Ala-Pro-Ala-pNA)
Assay type: biochemical
Details: for IC50: pH 8.0, 37° C., 30 minutes; for inhibition at 50 µg/mL: at 50 μg/ml, read-out: Elastase Inhibitory Effect, Inhibition %

[1] = Y represents an oxygen atom, read-out: Inhibitory Effect on Elastase, IC50
[2] = Y represents a sulfur atom, read-out: Elastase Inhibitory Effect, IC50

Procedure: The test was carried out by the slight modification of the method of Bieth et al [see Biochem. Med., 75, 350 (1974)] using elastase from human neutrophil.
The reaction mixture consisted of 1 mM Suc-Ala-Pro-Ala-pNA (dissolving in N-methylpyrrolidone to the concentration of 100 mM, and then adding 1/100 amount of the solution to the reaction mixture.), 0.1 M buffer solution of tris-hydrochloric acid (pH 8.0), 0.2 M sodium chloride aqueous solution, the sample solution of various concentrations and enzyme solution in a final volume of 1.0 ml was incubated at 37° C. for 30 minutes.
The reaction was stopped by the addition of 100 μl of 50% acetic acid into the reaction mixture, and then p-nitro anilide released was measured on absorbance of 405 nm.
Inhibition percentage of the test compounds was caliculated by the following equation: [formula]

| SMILES | inhibition at 100 µM (Y represents an oxygen atom) | IC50 [1] | further results |
| --- | --- | --- | --- |
| COC(=O)C=Cc1ccc(OC(=O)c2ccc(NC(=N)N)cc2)cc1 [Example 27] | 31% |  |  |
| COc1cc(OC(=O)c2ccc(NC(=N)N)cc2)cc(OS(C)(=O)=O)c1 [Example 73] |  | 4.7 µM |  |
| N=C(N)Nc1ccc(C(=O)Oc2ccc(C(=O)c3ccccc3)cc2Cl)cc1 [Example 56] | 57.1% | 48 µM |  |
| COC(=O)c1ccccc1SC(=O)c1ccc(NC(=N)N)cc1 [Example 141] |  |  | IC50 [2]: 2.6 µM; inhibition at 50 µg/mL (Y represents a sulfur atom): 96.3% |
| N=C(N)Nc1ccc(C(=O)Oc2cccc(OC(=O)c3ccc(NC(=N)N)cc3)c2)cc1 [Example 64] |  | 15 µM |  |
| COC(=O)c1cc(Cl)cc(OC(=O)c2ccc(NC(=N)N)cc2)c1 [Example 18] |  | 1.8 µM |  |
| CNC(=O)c1cccc(OC(=O)c2ccc(NC(=N)N)cc2)c1Cl [Example 81] |  | 6 µM |  |
| COc1cc(OC(=O)c2ccc(NC(=N)N)cc2)cc(OC(=O)c2ccc(NC(=N)N)cc2)c1 [Example 69] |  | 1.6 µM |  |
| N=C(N)Nc1ccc(SCc2cc(Cl)cc(OC(=O)c3ccc(NC(=N)N)cc3)c2)cc1 [Example 120] |  | 6 µM |  |
| CC(C)OC(=O)c1cc(OC(=O)c2ccc(NC(=N)N)cc2)cc(C(=O)OC(C)C)c1 [Example 19] | 5.2% |  |  |
| COC(=O)c1cc(O)cc(OC(=O)c2ccc(NC(=N)N)cc2)c1 [Example 111] | 45% |  |  |
| CCN(CC)S(=O)(=O)c1ccc(SC(=O)c2ccc(NC(=N)N)cc2)cc1 [Example 146] |  |  | IC50 [2]: 11 µM; inhibition at 50 µg/mL (Y represents a sulfur atom): 73.1% |
| COc1ccc(C(C)=O)c(OC(=O)c2ccc(NC(=N)N)cc2)c1 [Example 49] |  | 40 µM |  |
| N=C(N)Nc1ccc(C(=O)Sc2ccc([N+](=O)[O-])cc2)cc1 [Example 145] |  |  | IC50 [2]: 18 µM; inhibition at 50 µg/mL (Y represents a sulfur atom): 64.2% |
| N=C(N)Nc1ccc(C(=O)Oc2cccc(NC(=N)N)c2)cc1 [Example 116] | 20% |  |  |
| N=C(N)Nc1ccc(C(=O)Oc2cc(Cl)cc(C(=O)Nc3cccnc3)c2)cc1 [Example 86] |  | 0.93 µM |  |

| SMILES | inhibition at 100 µM (Y represents an oxygen atom) | IC50 [1] | further results |
| --- | --- | --- | --- |
| N=C(N)Nc1ccc(C(=O)Oc2cc(Cl)cc(OCc3ccccc3)c2)cc1 [Example 119] |  | 4.7 µM |  |
| N=C(N)Nc1ccc(OC(=O)c2ccc(NC(=N)N)cc2)cc1 [Example 117] |  | > 100 µM |  |
| Cc1cc(C)cc(OC(=O)c2ccc(NC(=N)N)cc2)c1 [Example 5] | 46.2% |  |  |
| N=C(N)Nc1ccc(C(=O)Oc2ccccc2Cl)cc1 [Example 34] | 76.8% | 27 µM |  |
| N=C(N)Nc1ccc(C(=O)Oc2cc(Cl)cc(COc3cccnc3)c2)cc1 [Example 121] |  | 1.1 µM |  |
| CC(=O)Oc1ccc(OC(=O)c2ccc(NC(=N)N)cc2)cc1 [Example 60] | 27.8% |  |  |
| CCC(=O)Oc1cc(Cl)cc(OC(=O)c2ccc(NC(=N)N)cc2)c1 [Example 62] |  | 0.38 µM |  |
| N=C(N)Nc1ccc(C(=O)Oc2cccc(C(=O)c3ccccc3)c2)cc1 [Example 54] |  | 92 µM |  |
| N=C(N)Nc1ccc(C(=O)Oc2cccc([N+](=O)[O-])c2)cc1 [Example 107] | 87% | 11 µM |  |
| N=C(N)Nc1ccc(C(=O)Oc2ccccc2F)cc1 [Example 28] | 76.3% | 40 µM |  |
| CCN(CC)S(=O)(=O)c1cccc(OC(=O)c2ccc(NC(=N)N)cc2)c1 [Example 92] |  | 35 µM |  |
| N=C(N)Nc1ccc(C(=O)Oc2cccc(OC(=O)c3ccccc3)c2)cc1 [Example 63] | 78.3% | 11 µM |  |
| N=C(N)Nc1ccc(C(=O)Oc2cc(Cl)cc(COc3ccc(S(=O)(=O)N4CCOCC4)cc3)c2)cc1 [Example 151, P-guanidinobenzoic acid 3-chloro-5-(4-morpholinosulfonyl)phenoxymethylphenylester acetate] |  | 1.4 µM |  |
| N=C(N)Nc1ccc(C(=O)Oc2cc(Cl)cc(C(=O)Nc3ccc(S(N)(=O)=O)cc3)c2)cc1 [Example 102] |  | 1.3 µM |  |
| N=C(N)Nc1ccc(C(=O)Oc2ccccc2Br)cc1 [Example 42] | 82.1% | 16 µM |  |
| COc1ccc(SC(=O)c2ccc(NC(=N)N)cc2)cc1 [Example 130] |  |  | inhibition at 50 µg/mL (Y represents a sulfur atom): 48.2% |
